Test results reported in ChEMBL document CHEMBL5291721, “A preclinical secondary pharmacology resource illuminates target-adverse drug reaction associations of marketed drugs” (Nat Commun, 2023).

How the values were obtained:
Androgen receptor = molecular target: T1, Androgen receptor (Rattus norvegicus, UniProt P15207)
T1 sequence (P15207 whole entry): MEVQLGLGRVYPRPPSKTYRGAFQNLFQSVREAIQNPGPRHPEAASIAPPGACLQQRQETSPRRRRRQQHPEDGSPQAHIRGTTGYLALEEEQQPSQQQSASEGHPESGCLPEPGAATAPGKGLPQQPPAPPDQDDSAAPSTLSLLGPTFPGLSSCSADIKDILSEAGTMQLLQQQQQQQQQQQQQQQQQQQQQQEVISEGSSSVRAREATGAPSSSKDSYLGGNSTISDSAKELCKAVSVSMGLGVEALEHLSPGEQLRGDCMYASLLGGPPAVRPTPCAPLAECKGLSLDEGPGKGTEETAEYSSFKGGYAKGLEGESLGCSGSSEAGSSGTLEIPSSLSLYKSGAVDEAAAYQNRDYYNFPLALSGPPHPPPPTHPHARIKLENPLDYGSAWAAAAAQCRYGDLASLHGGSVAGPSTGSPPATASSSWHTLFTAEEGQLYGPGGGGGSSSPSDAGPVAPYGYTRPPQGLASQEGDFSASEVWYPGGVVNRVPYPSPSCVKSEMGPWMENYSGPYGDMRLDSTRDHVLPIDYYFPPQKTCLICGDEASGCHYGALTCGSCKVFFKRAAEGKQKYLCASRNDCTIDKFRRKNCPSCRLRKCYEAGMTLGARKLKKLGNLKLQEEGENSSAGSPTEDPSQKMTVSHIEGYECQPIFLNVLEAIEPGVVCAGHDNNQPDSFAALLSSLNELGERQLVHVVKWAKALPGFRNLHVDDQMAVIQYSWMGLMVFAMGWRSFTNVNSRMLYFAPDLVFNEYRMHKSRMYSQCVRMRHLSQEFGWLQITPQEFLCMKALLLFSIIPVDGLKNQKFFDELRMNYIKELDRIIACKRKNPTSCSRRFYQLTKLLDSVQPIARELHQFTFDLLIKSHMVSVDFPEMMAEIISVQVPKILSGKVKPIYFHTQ

Progesterone receptor = molecular target: T2, Progesterone receptor (Homo sapiens, UniProt P06401)
T2 sequence (P06401 whole entry): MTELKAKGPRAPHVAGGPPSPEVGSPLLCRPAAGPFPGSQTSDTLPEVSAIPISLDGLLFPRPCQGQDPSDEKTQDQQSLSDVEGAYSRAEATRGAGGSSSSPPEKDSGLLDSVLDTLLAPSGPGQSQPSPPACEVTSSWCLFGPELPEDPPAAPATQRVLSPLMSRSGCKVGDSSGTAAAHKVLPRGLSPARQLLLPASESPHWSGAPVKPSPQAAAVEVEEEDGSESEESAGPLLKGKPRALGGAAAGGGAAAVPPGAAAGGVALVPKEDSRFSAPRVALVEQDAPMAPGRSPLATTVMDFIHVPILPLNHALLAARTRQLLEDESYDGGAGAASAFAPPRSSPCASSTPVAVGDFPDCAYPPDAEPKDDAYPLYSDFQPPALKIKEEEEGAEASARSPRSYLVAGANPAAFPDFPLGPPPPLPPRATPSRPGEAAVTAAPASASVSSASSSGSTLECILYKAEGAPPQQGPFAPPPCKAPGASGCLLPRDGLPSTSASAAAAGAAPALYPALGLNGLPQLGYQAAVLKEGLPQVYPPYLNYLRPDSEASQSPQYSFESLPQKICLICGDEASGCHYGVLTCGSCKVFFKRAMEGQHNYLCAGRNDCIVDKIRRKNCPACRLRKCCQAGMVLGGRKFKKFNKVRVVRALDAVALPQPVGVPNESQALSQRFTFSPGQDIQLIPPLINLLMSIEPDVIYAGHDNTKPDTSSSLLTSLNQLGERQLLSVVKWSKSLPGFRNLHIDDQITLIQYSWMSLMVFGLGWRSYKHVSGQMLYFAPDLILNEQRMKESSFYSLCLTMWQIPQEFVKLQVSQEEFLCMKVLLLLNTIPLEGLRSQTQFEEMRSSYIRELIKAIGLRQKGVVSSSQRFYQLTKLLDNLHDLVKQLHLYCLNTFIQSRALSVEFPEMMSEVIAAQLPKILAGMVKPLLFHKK

[1] = molecular target: T3, 5-hydroxytryptamine receptor 1A (Homo sapiens, UniProt P08908)
T3 sequence (P08908 whole entry): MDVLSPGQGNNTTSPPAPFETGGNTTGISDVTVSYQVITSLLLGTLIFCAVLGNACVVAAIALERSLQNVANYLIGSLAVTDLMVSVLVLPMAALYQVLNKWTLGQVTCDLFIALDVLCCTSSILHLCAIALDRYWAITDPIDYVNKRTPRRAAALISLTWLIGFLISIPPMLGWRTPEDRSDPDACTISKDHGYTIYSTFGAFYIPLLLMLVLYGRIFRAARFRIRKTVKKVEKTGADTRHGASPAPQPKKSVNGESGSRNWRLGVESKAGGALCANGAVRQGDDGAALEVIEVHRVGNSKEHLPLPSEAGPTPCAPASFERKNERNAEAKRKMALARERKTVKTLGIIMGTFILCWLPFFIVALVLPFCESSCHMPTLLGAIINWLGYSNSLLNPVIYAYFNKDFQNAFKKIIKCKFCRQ

D(1A) dopamine receptor = D(1A) dopamine receptor (Homo sapiens, UniProt P21728)
[2] = molecular target: T4, Alpha-1A adrenergic receptor (Homo sapiens, UniProt P35348)
T4 sequence (P35348 whole entry): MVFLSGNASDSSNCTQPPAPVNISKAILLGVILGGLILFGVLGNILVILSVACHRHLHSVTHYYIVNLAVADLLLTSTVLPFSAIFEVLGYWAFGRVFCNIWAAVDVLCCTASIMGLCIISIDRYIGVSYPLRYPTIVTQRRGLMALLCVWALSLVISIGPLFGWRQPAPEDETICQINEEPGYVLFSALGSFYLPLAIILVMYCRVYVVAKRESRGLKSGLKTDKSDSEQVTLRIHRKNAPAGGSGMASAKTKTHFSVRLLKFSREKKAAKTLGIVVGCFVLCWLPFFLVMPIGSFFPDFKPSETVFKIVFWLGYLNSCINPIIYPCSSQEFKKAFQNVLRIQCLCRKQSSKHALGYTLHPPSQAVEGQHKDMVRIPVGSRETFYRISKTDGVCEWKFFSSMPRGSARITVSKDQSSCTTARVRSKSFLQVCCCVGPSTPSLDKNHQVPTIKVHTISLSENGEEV
Note: assay procedure not described here.

Sequence of D(1A) dopamine receptor (P21728 whole entry): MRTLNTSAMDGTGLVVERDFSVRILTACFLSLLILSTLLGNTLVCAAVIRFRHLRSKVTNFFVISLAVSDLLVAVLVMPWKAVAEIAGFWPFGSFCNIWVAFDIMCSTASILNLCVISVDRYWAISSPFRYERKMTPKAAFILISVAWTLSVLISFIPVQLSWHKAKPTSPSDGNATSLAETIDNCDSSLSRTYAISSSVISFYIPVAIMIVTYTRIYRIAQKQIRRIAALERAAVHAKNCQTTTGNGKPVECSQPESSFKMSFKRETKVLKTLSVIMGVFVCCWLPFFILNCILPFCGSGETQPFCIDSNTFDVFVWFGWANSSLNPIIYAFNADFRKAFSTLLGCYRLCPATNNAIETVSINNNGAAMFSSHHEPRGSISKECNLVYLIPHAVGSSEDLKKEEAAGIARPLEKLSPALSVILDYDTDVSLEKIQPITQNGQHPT

`O=C1Nc2ccc(Cl)cc2C(c2ccccc2Cl)=NC1O` (stereo not given) [LORAZEPAM] gave an AC50 (Androgen receptor) greater than 30 µM, an AC50 (Progesterone receptor) of 26.2 µM and an AC50 [1] greater than 10 µM. It also gave an AC50 (D(1A) dopamine receptor) greater than 10 µM and an AC50 [2] greater than 10 µM.
